The text below walks through data of article PMC5933782, “Molecular structures of cdc2-like kinases in complex with a new inhibitor chemotype” (PLoS ONE, 2018).

CLK4, sequence (O35493 whole entry): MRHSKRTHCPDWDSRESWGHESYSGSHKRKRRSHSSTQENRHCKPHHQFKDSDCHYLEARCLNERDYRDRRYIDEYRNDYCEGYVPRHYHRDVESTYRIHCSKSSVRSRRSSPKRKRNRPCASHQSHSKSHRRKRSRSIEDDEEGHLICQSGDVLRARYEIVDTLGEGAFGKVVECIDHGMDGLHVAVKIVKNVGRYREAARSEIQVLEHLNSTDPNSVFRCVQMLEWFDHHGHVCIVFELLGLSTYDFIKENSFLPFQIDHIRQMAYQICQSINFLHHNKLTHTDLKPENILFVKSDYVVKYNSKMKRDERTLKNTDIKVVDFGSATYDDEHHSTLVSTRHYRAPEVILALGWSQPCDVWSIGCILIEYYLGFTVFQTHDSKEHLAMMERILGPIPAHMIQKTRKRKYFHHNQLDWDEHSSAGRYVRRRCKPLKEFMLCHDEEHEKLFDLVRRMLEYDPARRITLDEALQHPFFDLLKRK
T4 sequence (Q00535 whole entry): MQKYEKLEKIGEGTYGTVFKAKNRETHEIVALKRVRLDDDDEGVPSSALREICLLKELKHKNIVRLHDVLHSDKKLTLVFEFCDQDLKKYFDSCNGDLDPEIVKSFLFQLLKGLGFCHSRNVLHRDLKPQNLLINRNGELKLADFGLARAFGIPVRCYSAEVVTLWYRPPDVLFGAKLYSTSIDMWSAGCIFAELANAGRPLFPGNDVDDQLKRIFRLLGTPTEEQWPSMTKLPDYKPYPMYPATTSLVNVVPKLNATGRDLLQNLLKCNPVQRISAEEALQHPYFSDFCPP
T4 sequence (Q15078 99-307 partner limits assumed): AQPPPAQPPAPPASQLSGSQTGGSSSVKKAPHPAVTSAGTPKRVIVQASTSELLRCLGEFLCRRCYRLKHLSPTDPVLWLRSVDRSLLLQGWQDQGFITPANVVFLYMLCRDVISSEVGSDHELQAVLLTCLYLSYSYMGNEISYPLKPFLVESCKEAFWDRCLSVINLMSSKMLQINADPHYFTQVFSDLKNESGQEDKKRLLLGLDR

The target of one test is CDK9/cyclin T (Homo sapiens, UniProt P50750). Description: radiometric protein kinase assay. The following applies: 10 µM concentration; ± SEM.
CDK9/cyclin T, sequence (P50750 whole entry): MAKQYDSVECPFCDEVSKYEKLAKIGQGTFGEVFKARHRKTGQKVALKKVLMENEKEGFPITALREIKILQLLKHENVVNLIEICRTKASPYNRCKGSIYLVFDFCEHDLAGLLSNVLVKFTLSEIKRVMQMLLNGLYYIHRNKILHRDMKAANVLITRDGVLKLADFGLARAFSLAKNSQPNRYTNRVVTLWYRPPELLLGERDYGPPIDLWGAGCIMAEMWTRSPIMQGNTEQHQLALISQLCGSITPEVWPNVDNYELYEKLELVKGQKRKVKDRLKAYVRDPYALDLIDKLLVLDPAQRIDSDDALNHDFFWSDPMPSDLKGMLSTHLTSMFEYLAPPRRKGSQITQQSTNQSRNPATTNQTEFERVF
CDK9/cyclin T, sequence (O60563 whole entry partner): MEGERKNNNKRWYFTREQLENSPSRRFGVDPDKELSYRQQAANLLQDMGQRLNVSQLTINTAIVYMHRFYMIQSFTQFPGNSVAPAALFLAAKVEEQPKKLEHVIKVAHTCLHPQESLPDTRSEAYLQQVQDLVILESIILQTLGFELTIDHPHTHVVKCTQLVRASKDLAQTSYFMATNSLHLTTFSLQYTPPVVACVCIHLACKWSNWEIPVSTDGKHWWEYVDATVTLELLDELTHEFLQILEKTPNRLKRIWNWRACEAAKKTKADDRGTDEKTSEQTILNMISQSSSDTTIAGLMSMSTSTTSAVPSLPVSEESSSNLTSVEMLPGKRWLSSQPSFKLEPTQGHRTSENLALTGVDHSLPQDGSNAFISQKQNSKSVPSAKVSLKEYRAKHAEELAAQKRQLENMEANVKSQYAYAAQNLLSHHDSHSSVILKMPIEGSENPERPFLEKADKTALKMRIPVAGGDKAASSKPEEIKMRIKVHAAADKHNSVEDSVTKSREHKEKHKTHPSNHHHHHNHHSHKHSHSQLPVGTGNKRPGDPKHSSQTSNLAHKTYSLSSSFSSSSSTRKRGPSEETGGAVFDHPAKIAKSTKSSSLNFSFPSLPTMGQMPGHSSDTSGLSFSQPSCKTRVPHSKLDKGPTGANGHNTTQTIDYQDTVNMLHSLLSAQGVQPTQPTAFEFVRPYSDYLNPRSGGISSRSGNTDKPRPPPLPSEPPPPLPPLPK
Description: Buffers. Buffer A: 10 mM MgCl2, 1 mM EGTA, 1 mM DTT, 25 mM Tris-HCl pH 7.5, 50 μg heparin/mL. Buffer C: 60 mM β-glycerophosphate, 15 mM p-nitrophenylphosphate, 25 mM MOPS (pH 7.2), 15 mM EGTA, 15 mM MgCl2, 1 mM DTT, 1 mM sodium vanadate, 1 mM phenylphosphate.
Kinase activities were assayed in buffer A or C at 30°C at a final ATP concentration of 15 μmol/L. Blank values were subtracted and activities were expressed in percent of the maximal activity, i.e. in the absence of inhibitors. Controls were performed with appropriate dilutions of DMSO.
Their kinase activity was assayed in buffer A, with 1 mg histone H1/mL, in the presence of 15 μmol/L [γ-33P] ATP (3,000 Ci/mmol; 10 mCi/mL) in a final volume of 30 μL. After 30 min incubation at 30°C, the reaction was stopped by harvesting onto P81 phosphocellulose supernatant (Whatman) using a FilterMate harvester (Packard) and washing in 1% phosphoric acid. Scintillation fluid was added and the radioactivity measured in a Packard counter.
All data points for construction of dose response curves were recorded in triplicate.
On to `Cc1[nH]c2c3c(ccc2c1C)C(=O)NC3=O` [S19], for which the “Residual enzyme activity CDK9/cyclin T” value was 90±5%.

`Cc1ccc(-c2[nH]c3c4c(ccc3c2C)CNC4=O)cc1` [S18e]: the “Residual enzyme activity CDK9/cyclin T” value was 101±3%.

For `CCc1[nH]c2c3c(ccc2c1C)CNC3=O` [S18a], the “Residual enzyme activity CDK9/cyclin T” value came out at 93±5%.

In another test the target is DYRK1A (Homo sapiens, UniProt Q13627). As to the kind of experiment: radiometric protein kinase assay. Format: biochemical. Particulars: 10 µM concentration; ± SEM.
As for `Cc1[nH]c2c3c(ccc2c1C)C(=O)NC3=O` [S19], the “Residual enzyme activity DYRK 1A” value was found to be 41±8%.

`Cc1ccc(-c2[nH]c3c4c(ccc3c2C)CNC4=O)cc1` [S18e]: the “Residual enzyme activity DYRK 1A” value came to 99±16%.

As to `CCc1[nH]c2c3c(ccc2c1C)CNC3=O` [S18a], the “Residual enzyme activity DYRK 1A” value is listed as 54±1%.

In a further test the target is DYRK1B (Homo sapiens, UniProt Q9Y463). As to the kind of experiment: radiometric protein kinase assay. Format: biochemical. Particulars: 10 µM concentration; ± SEM.
DYRK1B, sequence (Q9Y463 whole entry): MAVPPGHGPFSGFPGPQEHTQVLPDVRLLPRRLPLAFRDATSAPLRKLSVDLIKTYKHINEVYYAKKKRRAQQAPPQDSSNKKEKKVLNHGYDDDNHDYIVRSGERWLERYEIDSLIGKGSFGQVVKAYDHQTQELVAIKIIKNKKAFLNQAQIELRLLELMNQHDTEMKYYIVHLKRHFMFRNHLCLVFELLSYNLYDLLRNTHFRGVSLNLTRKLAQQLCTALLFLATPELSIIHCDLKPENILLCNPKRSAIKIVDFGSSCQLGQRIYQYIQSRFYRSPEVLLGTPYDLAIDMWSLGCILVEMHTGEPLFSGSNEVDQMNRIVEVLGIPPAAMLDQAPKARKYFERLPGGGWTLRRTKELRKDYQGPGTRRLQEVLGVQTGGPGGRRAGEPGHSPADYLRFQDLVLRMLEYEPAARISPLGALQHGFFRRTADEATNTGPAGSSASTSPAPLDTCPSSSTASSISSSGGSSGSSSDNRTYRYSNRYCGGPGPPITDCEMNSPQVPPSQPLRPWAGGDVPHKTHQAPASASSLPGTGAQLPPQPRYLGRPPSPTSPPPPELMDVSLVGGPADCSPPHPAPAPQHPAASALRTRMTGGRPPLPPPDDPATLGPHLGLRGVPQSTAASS
As for `Cc1[nH]c2c3c(ccc2c1C)C(=O)NC3=O` [S19], the “Residual enzyme activity DYRK 1B” value is given as 39±5%.

With `Cc1ccc(-c2[nH]c3c4c(ccc3c2C)CNC4=O)cc1` [S18e], the “Residual enzyme activity DYRK 1B” value turned out to be 85±7%.

On to `CCc1[nH]c2c3c(ccc2c1C)CNC3=O` [S18a], for which the “Residual enzyme activity DYRK 1B” value is given as 46±8%.

The next test has as its target CLK4 (Mus musculus, UniProt O35493). Description: radiometric protein kinase assay. The following applies: 10 µM concentration; ± SEM.
Turning to `Cc1[nH]c2c3c(ccc2c1C)C(=O)NC3=O` [S19], the “Residual enzyme activity CLK 4” value was 21±1%.

Take `Cc1ccc(-c2[nH]c3c4c(ccc3c2C)CNC4=O)cc1` [S18e]: the “Residual enzyme activity CLK 4” value amounted to 64±9%.

Take `CCc1[nH]c2c3c(ccc2c1C)CNC3=O` [S18a]: the “Residual enzyme activity CLK 4” value is 7±2%.

A further test has as its target T1, DYRK3 (Homo sapiens, UniProt O43781).
T1 sequence (O43781 1-588): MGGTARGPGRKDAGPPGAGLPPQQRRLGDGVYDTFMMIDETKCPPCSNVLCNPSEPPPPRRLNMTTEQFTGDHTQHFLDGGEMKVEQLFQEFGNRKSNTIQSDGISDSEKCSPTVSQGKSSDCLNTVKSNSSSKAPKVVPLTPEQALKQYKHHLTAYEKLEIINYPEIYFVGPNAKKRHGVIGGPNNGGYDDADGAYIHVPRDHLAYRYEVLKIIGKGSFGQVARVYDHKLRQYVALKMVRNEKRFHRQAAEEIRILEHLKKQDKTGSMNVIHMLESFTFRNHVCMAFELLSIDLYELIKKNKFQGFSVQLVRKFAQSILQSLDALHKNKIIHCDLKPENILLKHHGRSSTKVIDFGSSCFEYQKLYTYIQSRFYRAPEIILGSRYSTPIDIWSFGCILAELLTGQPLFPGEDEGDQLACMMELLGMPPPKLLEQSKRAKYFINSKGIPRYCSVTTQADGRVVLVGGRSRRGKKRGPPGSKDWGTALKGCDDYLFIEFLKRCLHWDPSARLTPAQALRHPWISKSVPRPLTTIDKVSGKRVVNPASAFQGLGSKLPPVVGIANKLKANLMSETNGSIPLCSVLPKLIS
Description: radiometric protein kinase assay. The following applies: 10 µM concentration; ± SEM. Format: biochemical.
Take `Cc1[nH]c2c3c(ccc2c1C)C(=O)NC3=O` [S19]: the “Residual enzyme activity DYRK 3” value is 57±3%.

In the case of `Cc1ccc(-c2[nH]c3c4c(ccc3c2C)CNC4=O)cc1` [S18e], the “Residual enzyme activity DYRK 3” value was determined as 92±9%.

As to `CCc1[nH]c2c3c(ccc2c1C)CNC3=O` [S18a], the “Residual enzyme activity DYRK 3” value stood at 65±9%.

Another test addresses T2, DYRK2 (Homo sapiens, UniProt Q92630).
T2 sequence (Q92630 1-601): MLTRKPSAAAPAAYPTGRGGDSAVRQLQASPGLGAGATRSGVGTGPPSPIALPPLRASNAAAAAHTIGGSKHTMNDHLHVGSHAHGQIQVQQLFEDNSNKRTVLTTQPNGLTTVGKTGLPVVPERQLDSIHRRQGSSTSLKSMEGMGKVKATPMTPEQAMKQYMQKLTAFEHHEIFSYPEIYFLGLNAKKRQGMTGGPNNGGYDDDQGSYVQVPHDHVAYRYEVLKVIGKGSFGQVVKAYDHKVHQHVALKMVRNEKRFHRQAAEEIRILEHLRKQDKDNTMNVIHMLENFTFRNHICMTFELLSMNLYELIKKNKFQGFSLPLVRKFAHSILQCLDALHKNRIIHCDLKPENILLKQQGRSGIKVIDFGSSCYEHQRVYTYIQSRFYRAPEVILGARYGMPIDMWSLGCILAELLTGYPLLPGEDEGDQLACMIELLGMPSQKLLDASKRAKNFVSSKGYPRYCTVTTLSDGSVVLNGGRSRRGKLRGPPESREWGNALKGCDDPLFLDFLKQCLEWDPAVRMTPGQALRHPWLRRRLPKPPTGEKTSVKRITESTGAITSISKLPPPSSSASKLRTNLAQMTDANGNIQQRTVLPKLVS
Description: radiometric protein kinase assay. Format: biochemical. The following applies: 10 µM concentration; ± SEM.
Turning to `Cc1[nH]c2c3c(ccc2c1C)C(=O)NC3=O` [S19], the “Residual enzyme activity DYRK 2” value was determined as 20±5%.

On to `Cc1ccc(-c2[nH]c3c4c(ccc3c2C)CNC4=O)cc1` [S18e], for which the “Residual enzyme activity DYRK 2” value is 75±11%.

Regarding `CCc1[nH]c2c3c(ccc2c1C)CNC3=O` [S18a], the “Residual enzyme activity DYRK 2” value worked out at 42±12%.

The target in a further test is T3, CDK2/cyclin A (Homo sapiens, UniProt P24941).
T3 construct: made in house
Description: radiometric protein kinase assay. Format: biochemical. Particulars: 10 µM concentration; ± SEM.
Take `Cc1[nH]c2c3c(ccc2c1C)C(=O)NC3=O` [S19]: the “Residual enzyme activity CDK2/cyclin A” value was found to be 108±8%.

Take `Cc1ccc(-c2[nH]c3c4c(ccc3c2C)CNC4=O)cc1` [S18e]: the “Residual enzyme activity CDK2/cyclin A” value is reported as 102±9%.

For the compound `CCc1[nH]c2c3c(ccc2c1C)CNC3=O` [S18a], the “Residual enzyme activity CDK2/cyclin A” value amounted to 99±8%.

The next test deals with CLK2 (Mus musculus, UniProt O35491). As to the kind of experiment: radiometric protein kinase assay. Particulars: 10 µM concentration; ± SEM.
CLK2, sequence (O35491 whole entry): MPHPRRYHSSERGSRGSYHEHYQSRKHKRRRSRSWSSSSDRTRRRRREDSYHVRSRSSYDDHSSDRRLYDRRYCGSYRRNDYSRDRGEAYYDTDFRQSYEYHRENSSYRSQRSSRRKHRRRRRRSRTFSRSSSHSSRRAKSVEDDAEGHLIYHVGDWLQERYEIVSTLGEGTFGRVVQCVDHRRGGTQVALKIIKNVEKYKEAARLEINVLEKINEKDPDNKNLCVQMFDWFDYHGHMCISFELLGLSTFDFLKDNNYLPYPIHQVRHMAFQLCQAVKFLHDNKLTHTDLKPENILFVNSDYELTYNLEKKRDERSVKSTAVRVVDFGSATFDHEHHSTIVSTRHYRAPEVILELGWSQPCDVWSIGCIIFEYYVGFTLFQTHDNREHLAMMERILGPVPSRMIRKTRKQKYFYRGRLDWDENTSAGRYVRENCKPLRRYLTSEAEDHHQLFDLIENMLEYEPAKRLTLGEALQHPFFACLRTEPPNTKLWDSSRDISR
On to `Cc1[nH]c2c3c(ccc2c1C)C(=O)NC3=O` [S19], for which the “Residual enzyme activity CLK 2” value amounted to 33±7%.

For the compound `Cc1ccc(-c2[nH]c3c4c(ccc3c2C)CNC4=O)cc1` [S18e], the “Residual enzyme activity CLK 2” value was 77±6%.

Turning to `CCc1[nH]c2c3c(ccc2c1C)CNC3=O` [S18a], the “Residual enzyme activity CLK 2” value was 31±4%.

A further test concerns CDK1/cyclin B. Description: radiometric protein kinase assay. Format: biochemical, starfish. Particulars: 10 µM concentration; ± SEM.
For `Cc1[nH]c2c3c(ccc2c1C)C(=O)NC3=O` [S19], the “Residual enzyme activity CDK1/cyclin B” value was 81±27%.

On to `Cc1ccc(-c2[nH]c3c4c(ccc3c2C)CNC4=O)cc1` [S18e], for which the “Residual enzyme activity CDK1/cyclin B” value is 100±20%.

For `CCc1[nH]c2c3c(ccc2c1C)CNC3=O` [S18a], the “Residual enzyme activity CDK1/cyclin B” value came out at 94±13%.

A further test relates to GSK-3. Description: radiometric protein kinase assay. Format: biochemical, porcine. Particulars: 10 µM concentration; ± SEM.
On to `Cc1[nH]c2c3c(ccc2c1C)C(=O)NC3=O` [S19], for which the “Residual enzyme activity GSK3” value is listed as 51±5%.

On to `Cc1ccc(-c2[nH]c3c4c(ccc3c2C)CNC4=O)cc1` [S18e], for which the “Residual enzyme activity GSK3” value was 120±31%.

On to `CCc1[nH]c2c3c(ccc2c1C)CNC3=O` [S18a], for which the “Residual enzyme activity GSK3” value is on record as 97±3%.

A further test has as its target T4, CDK5/p25 (Homo sapiens, UniProt Q00535).
T4 construct: made in house
Description: radiometric protein kinase assay. The following applies: 10 µM concentration; ± SEM. Format: biochemical.
`Cc1[nH]c2c3c(ccc2c1C)C(=O)NC3=O` [S19]: the “Residual enzyme activity CDK5/p25” value worked out at 94±4%.

Take `Cc1ccc(-c2[nH]c3c4c(ccc3c2C)CNC4=O)cc1` [S18e]: the “Residual enzyme activity CDK5/p25” value is 114±11%.

For the compound `CCc1[nH]c2c3c(ccc2c1C)CNC3=O` [S18a], the “Residual enzyme activity CDK5/p25” value stood at 100±9%.

The subject of a further test is CK1δ/ε. Description: radiometric protein kinase assay. Particulars: 10 µM concentration; ± SEM. Format: biochemical, porcine.
Consider `Cc1[nH]c2c3c(ccc2c1C)C(=O)NC3=O` [S19], for which the “Residual enzyme activity CK1” value is 65±5%.

Turning to `Cc1ccc(-c2[nH]c3c4c(ccc3c2C)CNC4=O)cc1` [S18e], the “Residual enzyme activity CK1” value was found to be 84±7%.

Regarding `CCc1[nH]c2c3c(ccc2c1C)CNC3=O` [S18a], the “Residual enzyme activity CK1” value came out at 50±6%.

The target in another test is CLK3 (Mus musculus, UniProt O35492). As to the kind of experiment: radiometric protein kinase assay. The following applies: 10 µM concentration; ± SEM.
CLK3, sequence (O35492 whole entry): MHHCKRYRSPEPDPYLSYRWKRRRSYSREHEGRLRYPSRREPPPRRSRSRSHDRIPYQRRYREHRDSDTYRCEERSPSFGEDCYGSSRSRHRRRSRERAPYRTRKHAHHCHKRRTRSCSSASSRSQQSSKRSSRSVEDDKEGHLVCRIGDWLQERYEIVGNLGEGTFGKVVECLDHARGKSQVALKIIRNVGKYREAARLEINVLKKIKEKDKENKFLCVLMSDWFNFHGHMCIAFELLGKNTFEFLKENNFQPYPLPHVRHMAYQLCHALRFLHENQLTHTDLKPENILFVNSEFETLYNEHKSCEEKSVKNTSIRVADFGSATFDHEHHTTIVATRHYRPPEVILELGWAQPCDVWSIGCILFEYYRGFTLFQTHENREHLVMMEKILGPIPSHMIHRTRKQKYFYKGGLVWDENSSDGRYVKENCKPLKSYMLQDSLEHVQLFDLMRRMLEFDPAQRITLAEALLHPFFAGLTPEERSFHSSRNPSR
`Cc1[nH]c2c3c(ccc2c1C)C(=O)NC3=O` [S19]: the “Residual enzyme activity CLK 3” value amounted to 91±11%.

Regarding `Cc1ccc(-c2[nH]c3c4c(ccc3c2C)CNC4=O)cc1` [S18e], the “Residual enzyme activity CLK 3” value came to 105±10%.

Regarding `CCc1[nH]c2c3c(ccc2c1C)CNC3=O` [S18a], the “Residual enzyme activity CLK 3” value stood at 92±12%.

For the next test, the target named is CLK1 (Mus musculus, UniProt P22518). Description: radiometric protein kinase assay. The following applies: 10 µM concentration; ± SEM.
CLK1, sequence (P22518 whole entry): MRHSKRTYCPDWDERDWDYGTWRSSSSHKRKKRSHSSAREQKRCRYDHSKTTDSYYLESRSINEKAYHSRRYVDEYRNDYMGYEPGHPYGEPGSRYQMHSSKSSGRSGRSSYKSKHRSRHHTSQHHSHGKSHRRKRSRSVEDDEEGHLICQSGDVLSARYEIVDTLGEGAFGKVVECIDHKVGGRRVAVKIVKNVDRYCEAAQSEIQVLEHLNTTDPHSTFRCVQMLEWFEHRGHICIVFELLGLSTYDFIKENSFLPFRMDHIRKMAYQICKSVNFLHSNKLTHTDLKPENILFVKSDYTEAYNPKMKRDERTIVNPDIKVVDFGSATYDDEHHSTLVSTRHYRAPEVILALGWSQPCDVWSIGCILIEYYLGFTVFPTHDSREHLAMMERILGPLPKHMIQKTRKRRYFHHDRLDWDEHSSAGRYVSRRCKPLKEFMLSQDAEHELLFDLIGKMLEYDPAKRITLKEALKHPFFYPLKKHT
In the case of `Cc1[nH]c2c3c(ccc2c1C)C(=O)NC3=O` [S19], the “Residual enzyme activity CLK 1” value amounted to 52±10%.

With `Cc1ccc(-c2[nH]c3c4c(ccc3c2C)CNC4=O)cc1` [S18e], the “Residual enzyme activity CLK 1” value was 105±12%.

With `CCc1[nH]c2c3c(ccc2c1C)CNC3=O` [S18a], the “Residual enzyme activity CLK 1” value is reported as 20±2%.
